# PMC8216263 (Pharmaceutical Biology, 2021)
# Biological target: T1, OCT2 (Homo sapiens, UniProt O15244)
# T1 construct: host or cells: S2 (second portion of proximal tubule) cells
# T1 sequence (O15244 1-555): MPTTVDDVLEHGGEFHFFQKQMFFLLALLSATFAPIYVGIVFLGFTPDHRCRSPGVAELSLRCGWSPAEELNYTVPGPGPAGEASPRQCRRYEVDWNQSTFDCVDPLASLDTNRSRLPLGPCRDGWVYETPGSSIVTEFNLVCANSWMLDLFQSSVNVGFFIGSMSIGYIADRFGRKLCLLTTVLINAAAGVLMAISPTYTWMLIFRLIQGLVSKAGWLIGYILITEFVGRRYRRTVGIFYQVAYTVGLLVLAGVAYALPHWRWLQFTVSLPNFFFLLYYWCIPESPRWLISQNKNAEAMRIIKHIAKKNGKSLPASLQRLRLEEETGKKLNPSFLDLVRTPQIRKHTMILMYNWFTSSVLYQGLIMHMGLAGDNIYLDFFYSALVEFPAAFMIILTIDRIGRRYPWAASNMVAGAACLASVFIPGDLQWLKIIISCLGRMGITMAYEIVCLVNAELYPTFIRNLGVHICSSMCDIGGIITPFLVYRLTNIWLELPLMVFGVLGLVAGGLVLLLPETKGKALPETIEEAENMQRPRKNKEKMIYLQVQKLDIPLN
# Assay: Inhibition of OCT2-mediated 14C-TEA uptake in S2-OCT2 cells
# Format: cell-based
# Conditions: GA at 150 and 500 μg/L; PCA 100 to 1000 μg/L; p < 0.05 vs control
# Procedure: Cells were cultured in DMEM supplemented with 10% FBS, 100 units/mL penicillin and 100 units/mL streptomycin. […] Cell culture flasks, 24-well cell culture plates, and transwell polycarbonate inserts (12 mm diameter, 0.4 μm pore size) were purchased from Corning Co-star Corp. (Bedford, MA).
# The MDCK-OAT1, S2-OAT3, S2-OCT2 and HEK293-OATP1B1 cell lines were utilized in this study. […] Briefly, S2-OAT3, S2-OCT2 and S2-mock cells were trypsinized and uniformly suspended in the culture medium’s designated volume to provide a density of 2.0 × 10^5 cells/mL. A 1.0-mL aliquot of the cell suspension was added into each well of 24-well insert plates. HEK293-OATP1B1, MDCK-OAT1 and their mock cells were seeded in 24-well plates at a density of 1.5 × 10^5 cells/well. […] Three washes terminated the experiment with ice-cold DPBS buffer after removing the incubation buffer. Cells were lysed with 400 μL of […] sodium hydroxide solution. The cell lysate and 3.0 mL of aquasol-2 scintillation fluid were put into a scintillation flask. […] The final concentration of DMSO in the assay was less than 0.1%. All experiments were performed in triplicate.
smiles,measurement,value
"O=C(O)c1ccc(O)c(O)c1 [PCA, protocatechuic acid]",effect on OCT2-mediated uptake of 14C-TEA,statistical decline
